A short description of series [1]: MRT (0 to last) in Sprague-Dawley rat at 0.3 mg/kg,iv measured at 0.05 to 24 hrs of post administration by LC-MS/MS analysis. To be noted: in vivo, time 0.05-24 hrs. Format: ADME, organism-based.
A short description of series [2]: Half life in Sprague-Dawley rat at 0.3 mg/kg,iv measured at 0.05 to 24 hrs of post administration by LC-MS/MS analysis. Format: ADME, organism-based. As to conditions: in vivo, time 0.05-24 hrs.
For series [3], the system named is Mus musculus. Nature of the series: Antidepressant activity in chronic restraint stress-induced depressive C57BL/6J mouse model assessed as change in total distance traveled at 25 to 300 microg/kg,ip administrated on day 29 to 33 measured on day 34 by open field test. To be noted: dose 25-300 µg/kg, time 6.0 day. It is filed as functional, organism-based.
Series [4] can be described thus: Toxicity in chronic restraint stress-induced depressive C57BL/6J mouse model assessed as spleen pathological change at 25 to 300 microg/kg,ip administrated on day 29 to 33 measured on day 36 by hematoxylin and eosin staining based microscopic analysis. It is filed as tissue-based. As to conditions: in vivo, 192 h, dose 25-300 µg/kg, time 8 day.
Series [5] can be described thus: Half life in Sprague-Dawley rat at 0.3 mg/kg,ip measured at 0.05 to 24 hrs of post administration by LC-MS/MS analysis. It is filed as ADME, organism-based. As to conditions: in vivo, time 0.05-24 hrs.
Series [6] can be described thus: Cmax in Sprague-Dawley rat at 0.3 mg/kg,iv measured at 0.05 to 24 hrs of post administration by LC-MS/MS analysis. It is filed as ADME, organism-based. To be noted: in vivo, time 0.05-24 hrs.
Series [7] can be described thus: MRT (0 to last) in Sprague-Dawley rat at 0.3 mg/kg,ip measured at 0.05 to 24 hrs of post administration by LC-MS/MS analysis. It is filed as ADME, organism-based. As to conditions: in vivo, time 0.05-24 hrs.
Series [8] is described as follows: Toxicity in chronic restraint stress-induced depressive C57BL/6J mouse model assessed as decrease in percentage of spontaneous alternation at 4 mg/kg,ip administration by Y-maze test. Format: organism-based. As to conditions: in vivo.
A short description of series [9]: Toxicity in chronic restraint stress-induced depressive C57BL/6J mouse model assessed as decrease in percentage of spontaneous alternation at 2 mg/kg,ip administration by Y-maze test. Format: organism-based. As to conditions: in vivo.
In series [10] the test system is Mus musculus. As to the kind of experiment: Antidepressant activity in chronic restraint stress-induced depressive C57BL/6J mouse model assessed as reduction in immobility time at 100 to 300 microg/kg,ip administrated on day 29 to 33 measured on day 35 by forced swimming test. It is filed as functional, organism-based. As to conditions: dose 100-300 µg/kg, time 7.0 day.

Series [11] deals with Mus musculus. Nature of the series: Antidepressant activity in chronic restraint stress-induced depressive C57BL/6J mouse model assessed as increase in hippocampal BDNF protein expression at 0.3 mg/kg,ip administration measured after 8 hrs by Western blotting analysis. Format: functional, organism-based. Background: A western blot detects proteins with antibodies after separation by electrophoresis.

Series [12] has as its system Mus musculus. Nature of the series: Antidepressant activity in Reserpine-induced depressive C57BL/6J mouse model assessed as decrease in immobility time at 0.1 to 0.3 mg/kg,ip administration measured after 7 days by tail suspension test. Format: functional, organism-based. To be noted: dose 0.1-0.3 mg/kg, time 7.0 day.

Active and inactive are the calls of the source. No cut-off for these calls is given here.

For orientation: MRT last means the average time that molecules of a dose stay in the body. By half-life is commonly meant the time in which the quantity being followed falls by half. The term Cmax denotes the maximum level reached in the sampled fluid or tissue.

For `CN1[C@@H]2C[C@@H](OC(=O)[C@@](F)(CO)c3ccccc3)C[C@H]1[C@@H]1O[C@@H]12`, the values for the MRT last in series [1] and in [7] were 13.8 min and 23 min, respectively. The half-life in series [2] was 13.9 min; in [5], 16.6 min. In addition, the result in the series on Mus musculus [3] was inactive. The values for the Activity entry in series [4], in series [8] and in series [9] were “Non-Toxic”, “Toxic” and “Non-Toxic”, respectively. In addition, in series [6], the highest level (Cmax) was 230 ng/mL. Besides, the outcome in the series with Mus musculus [10], in the series with Mus musculus [11] and in the series with Mus musculus [12] was Active.

The values above are taken from ChEMBL document CHEMBL5543096 (J Med Chem, 2024).
